The text below walks through data of patent publication US20090099140A1, “20-Alkyl, Gemini Vitamin D3 Compounds and Methods of Use Thereof” (BioXell S.p.A., priority 2005, published 2009).

Like-named read-outs stand apart in the source and are kept apart here.

The IC50 is the concentration that inhibits the measured activity by half. By MTD is commonly meant the highest dose tested that stayed within the study's limit of toxicity.

One data set deals with IFN-γ production. Put plainly: IFN-γ production by allogeneic T cell activation in the mixed leukocyte response (MLR). As to conditions: MLR of allogeneic PBMC from 2 different donors, 5 days, IFN-γ by ELISA, 50% inhibition of IFN-γ production. Format: cell-based. The method, then:
Immature dendritic cells (DC) were prepared as described in Romani, N. et al., J. Immunol. Meth. 196:137. IFN-γ production by allogeneic T cell activation in the mixed leukocyte response (MLR) was determined as described in Penna, G., et al., J. Immunol., 164: 2405-2411 (2000).
Briefly, peripheral blood mononuclear cells (PBMC) were separated from buffy coats by Ficoll gradient and the same number (3×105) of allogeneic PBMC from 2 different donors were co-cultured in 96-well flat-bottom plates. After 5 days, IFN-γ production in the MLR assay was measured by ELISA and the results expressed as amount (nM) of test compound required to induce 50% inhibition of IFN-γ production (IC50) (Table 1).
On the technique in general: ELISA stands for enzyme-linked immunosorbent assay.

Data set [1] is described as follows: Determination of maximum tolerated dose (MTD), highest oral dose without hypercalcemia (serum calcium). Format: in vivo. The settings on record: in vivo, po. Here is the method:
(§1) The maximum tolerated dose of the vitamin D3 compounds of the invention were determined in eight week-old female C57BL/6 mice (3 mice/group) dosed orally (0.1 ml/mouse) with various concentrations of Vitamin D3 analogs daily for four days. Analogs were formulated in miglyol for a final concentration of 10, 30, 100 and 300 μg/kg when given at 0.1 ml/mouse p.o. daily. Blood for serum calcium assay was drawn by tail bleed on day five, the final day of the study. Serum calcium levels were determined using a colorimetric assay (Sigma Diagnostics, procedure no. 597). The highest dose of analog tolerated without inducing hypercalcemia (serum calcium >10.7 mg/dl) was taken as the maximum tolerated does (MTD).

For the next data set, the system named is female C57BL/6 mice. The description is as above. Format: in vivo. As to conditions: eight week-old female C57BL/6 mice, p.o. daily for four days in miglyol; highest dose without hypercalcemia (serum calcium >10.7 mg/dl) on day five. The method, then: as §1
The mark [2] stands for this setting: mouse, eight week-old female C57BL/6 mice, p.o. daily for four days in miglyol, highest dose without hypercalcemia (serum calcium >10.7 mg/dl) on day five, read-out: MTD (mice).

As to `[2H]C([2H])([2H])C(O)(CCC[C@@](C)(CC#CC(O)(C(F)(F)F)C(F)(F)F)[C@H]1CCC2/C(=C/C=C3/C[C@@H](O)C[C@H](F)C3=C)CCC[C@@]21C)C([2H])([2H])[2H]` (stereo partly drawn) [Compound 24, 1α-Fluoro-25-hydroxy-20S-20-(4-hydroxy-5,5,5-trideutero-4-trideuteromethyl-pentyl)-23-yne-26,27-hexafluorocholecalciferol], inhibition in the data set on IFN-γ production (120 h) was half-maximal at 0.0213 nM (IC50). In addition, in data set [1] (setting [2]), the MTD at 4 days was 10 µg/kg.
For `CC(C)(O)CCC[C@@](C)(C/C=C\C(O)(C(F)(F)F)C(F)(F)F)[C@H]1CCC2/C(=C/C=C3/CC(O)C[C@H](O)C3)CCC[C@@]21C` (stereo partly drawn) [Compound 11, (20S)-1,25-Dihydroxy-20-[(2Z)-5,5,5-trifluoro-4-hydroxy-4-trifluoromethyl-pent-2-enyl]-19-nor-cholecalciferol], in that order: 0.253 nM and 3 µg/kg.
The compound `C=C1/C(=C\C=C2/CCC[C@@]3(C)C2CC[C@@H]3C(C)(CCCC(C)(C)O)CCCC(C)(C)O)CC(O)C[C@@H]1F` (stereo partly drawn) [Compound 3, 1α-Fluoro-25-hydroxy-20-(4-hydroxy-4-methyl-pentyl)-cholecalciferol] showed a half-inhibitory concentration (IC50) in the data set on IFN-γ production (120 h) of 6.27 nM. Further, the MTD at 4 days in data set [1] (female, C57BL/6, mouse) was > 300 µg/kg.
`C=C1/C(=C\C=C2/CCC[C@@]3(C)C2CC[C@@H]3[C@](C)(CC#CC(O)(C(F)(F)F)C(F)(F)F)CCCC(C)(C)O)CC(O)C[C@@H]1F` (stereo partly drawn) [Compound 13, (20S)-1α-Fluoro-25-hydroxy-20-(5,5,5-trifluoro-4-hydroxy-4-trifluoromethyl-pent-2-ynyl)-cholecalciferol] came in with an IC50 in the data set on IFN-γ production (120 h) of 0.358 nM. In addition, the MTD at 4 days in data set [1] (setting [2]) is 100 µg/kg.
For `C=C1/C(=C\C=C2/CCC[C@@]3(C)C2CC[C@@H]3[C@@](C)(C/C=C\C(O)(C(F)(F)F)C(F)(F)F)CCCC(C)(C)O)C[C@@H](O)C[C@@H]1O` (stereo partly drawn) [Compound 8, (20R)-1,25-Dihydroxy-20-[(2Z)-5,5,5-trifluoro-4-hydroxy-4-trifluoromethyl-pent-2-enyl]-cholecalciferol] the same measures were 0.057 nM and 0.3 µg/kg.
For `C=C1/C(=C\C=C2/CCC[C@@]3(C)C2CC[C@@H]3[C@](C)(C/C=C/C(O)(C(F)(F)F)C(F)(F)F)CCCC(C)(C)O)CC(O)C[C@@H]1F` (stereo partly drawn) [Compound 15, (20S)-1α-Fluoro-25-hydroxy-20-[(2E)-5,5,5-trifluoro-4-hydroxy-4-trifluoromethyl-pent-2-enyl]-cholecalciferol] the same measures were 0.119 nM and 10 µg/kg.
For `[2H]C([2H])([2H])C(O)(CCC[C@@](C)(C/C=C\C(O)(C(F)(F)F)C(F)(F)F)[C@H]1CCC2/C(=C/C=C3/C[C@@H](O)C[C@H](O)C3=C)CCC[C@@]21C)C([2H])([2H])[2H]` (stereo partly drawn) [Compound 16, 1,25-Dihydroxy-20S-20-(4-hydroxy-5,5,5-trideutero-4-trideuteromethyl-pentyl)-23Z-ene-26,27-hexafluorocholecalciferol], in that order: 0.0111 nM and 0.3 µg/kg.
In turn, “1α-Fluoro-25-hydroxy-20S-20-(4-hydroxy-5,5,5-trideutero-4-trideuteromethyl-pentyl)-23E-ene-26,27-hexafluorocholecalciferol [Compound 21]” yielded an IC50 in the data set on IFN-γ production of 0.0071 nM. Moreover, the “MTD (mice)” value with female C57BL/6 mice is 10 µg/kg.
In the case of `CC(C)(O)CCC[C@@](C)(CC#CC(O)(C(F)(F)F)C(F)(F)F)[C@H]1CCC2/C(=C/C=C3/CC(O)C[C@H](O)C3)CCC[C@@]21C` (stereo partly drawn) [Compound 10, (20S)-1,25-Dihydroxy-20-(5,5,5-trifluoro-4-hydroxy-4-trifluoromethyl-pent-2-ynyl)-19-nor-cholecalciferol], the IC50 in the data set with IFN-γ production (120 h) worked out at 0.0436 nM. The MTD at 4 days in data set [1] (setting [2]) is 0.3 µg/kg.
For `C=C1/C(=C\C=C2/CCC[C@@]3(C)C2CC[C@@H]3[C@](C)(C/C=C\C(O)(C(F)(F)F)C(F)(F)F)CCCC(C)(C)O)CC(O)C[C@@H]1O` (stereo partly drawn) [Compound 5, (20S)-1,25-Dihydroxy-20-(5,5,5-trifluoro-4-hydroxy-4-trifluoromethyl-pent-(2Z)-enyl)cholecalciferol], the IC50 in the data set on IFN-γ production (120 h) was determined as 0.042 nM. In data set [1] (setting [2]), the MTD at 4 days was 0.3 µg/kg.
For `[2H]C([2H])([2H])C(O)(CCC[C@](C)(C/C=C\C(O)(C(F)(F)F)C(F)(F)F)[C@H]1CCC2/C(=C/C=C3/C[C@@H](O)C[C@H](O)C3=C)CCC[C@@]21C)C([2H])([2H])[2H]` (stereo partly drawn) [Compound 25, 1,25-Dihydroxy-20R-20-(4-hydroxy-5,5,5-trideutero-4-trideuteromethyl-pentyl)-23Z-ene-26,27-hexafluorocholecalciferol], in that order: 0.001 nM and 3 µg/kg.
